# Values of other authors in patent publication US5994297A, “Therapy for Staphylococcus aureus” (Eli Lilly and Company, priority 1998, dated 1999).
# Test system: Staphylococcus aureus strain "Mu50"
# Conditions: Staphylococcus aureus strain Mu50 (MRSA, reduced glycopeptide sensitivity); Hiramatsu et al., J. of Antimicrobial Chemotherapy, 1997, 40, 135-146
smiles,measurement,value
CN[C@H](CC(C)C)C(=O)N[C@H]1C(=O)N[C@@H](CC(N)=O)C(=O)N[C@H]2C(=O)N[C@H]3C(=O)N[C@H](C(=O)N[C@H](C(=O)O)c4cc(O)cc(O)c4-c4cc3ccc4O)[C@H](O)c3ccc(c(Cl)c3)Oc3cc2cc(c3O[C@@H]2O[C@H](CO)[C@@H](O)[C@H](O)[C@H]2O[C@H]2C[C@](C)(N)[C@H](O)[C@H](C)O2)Oc2ccc(cc2Cl)[C@H]1O [vancomycin],vancomycin MIC,8 µg/mL
